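Interpolation was linear, between the two tested concentrations surrounding the appropriate level; five concentrations were tested over 48 hours in 96-well plates. At the GI50, growth is halved.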 Calls of active or inactive are those of the source. No stated cut-off is given here; in the data, active = GI50 up to about 1.1 µM and inactive = higher.
Experiments:
Assay in all cases: DTP human tumour cell line panel, 48 h
A549 = tested on: A549
ACHN = tested on: ACHN
BT-549 = tested on: BT-549
CAKI-1 = tested on: CAKI-1
EKVX = tested on: EKVX
K562 = tested on: K562
M14 = tested on: M14
MCF7 = tested on: MCF7
MDA-N = tested on: MDA-N
Malme-3M = tested on: Malme-3M
NCI-H226 = tested on: NCI-H226
OVCAR-4 = tested on: OVCAR-4
OVCAR-8 = tested on: OVCAR-8
SF-268 = tested on: SF-268
SF-295 = tested on: SF-295
SNB-19 = tested on: SNB-19
SW-620 = tested on: SW-620
T47D = tested on: T47D
UACC-62 = tested on: UACC-62
XF498 = tested on: XF498

Compound | GI50 (A549) | GI50 (ACHN) | GI50 (BT-549) | GI50 (CAKI-1) | GI50 (EKVX) | GI50 (K562) | GI50 (M14) | GI50 (MCF7) | GI50 (MDA-N) | GI50 (Malme-3M) | GI50 (NCI-H226) | GI50 (OVCAR-4) | GI50 (OVCAR-8) | GI50 (SF-268) | GI50 (SF-295) | GI50 (SNB-19) | GI50 (SW-620) | GI50 (T47D) | GI50 (UACC-62) | GI50 (XF498)
CCc1ccc(CCN2CCCCC2)nc1 | > 100 µM (inactive) | > 100 µM (inactive) | > 100 µM (inactive) | > 100 µM (inactive) | > 100 µM (inactive) | > 100 µM (inactive) | > 100 µM (inactive) | > 100 µM (inactive) | > 100 µM (inactive) | > 100 µM (inactive) | > 100 µM (inactive) | > 100 µM (inactive) | > 100 µM (inactive) | > 100 µM (inactive) | > 100 µM (inactive) | > 100 µM (inactive) | > 100 µM (inactive) | > 100 µM (inactive) | > 100 µM (inactive) | 
CN(CCNC(=O)c1c[nH]c2c1ccc1ccccc12)CCNC(=O)c1c[nH]c2c1ccc1ccccc12 | 2.2 µM (inactive) | 1.86 µM (inactive) | 9.35 µM (inactive) | 2.56 µM (inactive) | 3.62 µM (inactive) | 2.18 µM (inactive) | 1.84 µM (inactive) | 1.43 µM (inactive) | 2.31 µM (inactive) | 8.55 µM (inactive) | 18.1 µM (inactive) | 3.54 µM (inactive) | 1.93 µM (inactive) | 3.1 µM (inactive) | 2.22 µM (inactive) | 2.23 µM (inactive) | 1.91 µM (inactive) | 1.14 µM (inactive) | 1.75 µM (inactive) | 
CCN(CCCl)c1cc(CN(C)C)cc(NC(=O)c2ccc(C(=O)Nc3cc(CN(C)C)cc(N(CC)CCCl)c3)cc2)c1 | 0.0955 µM (active) | 0.162 µM (active) | 0.226 µM (active) | 0.272 µM (active) | 1.31 µM (inactive) | 0.0733 µM (active) | 0.291 µM (active) | 0.017 µM (active) | 0.154 µM (active) | 0.292 µM (active) | 0.0697 µM (active) | 0.5 µM (active) | 0.224 µM (active) | 0.0502 µM (active) | 0.182 µM (active) | 0.0873 µM (active) | 0.149 µM (active) | 0.134 µM (active) | 0.0736 µM (active) | 
Cc1cc(NCCCCCCCCNc2cc(C)nc3cc(N(C)C)ccc23)c2ccc(N(C)C)cc2n1 | 3.31 µM (inactive) | 12.3 µM (inactive) |  | 24.3 µM (inactive) | 7.1 µM (inactive) | 0.881 µM (active) | 3.73 µM (inactive) |  |  |  |  | 4.88 µM (inactive) | 6.11 µM (inactive) | 3.48 µM (inactive) | 8.65 µM (inactive) | 3.09 µM (inactive) | 6.81 µM (inactive) |  |  | 1.98 µM (inactive)
Clc1cccc2c1OCC1C(c3ccccc3)=NN(c3ccccc3)C21 (stereo not drawn) | 66.2 µM (inactive) | 55.5 µM (inactive) |  |  | 40.1 µM (inactive) | 28.9 µM (inactive) |  |  |  | > 100 µM (inactive) |  |  | 81.8 µM (inactive) | 63.2 µM (inactive) | 72.1 µM (inactive) | 96.4 µM (inactive) | > 100 µM (inactive) |  |  | > 100 µM (inactive)
CC(=O)Nc1ccc(OC2=CCN(C)CC2)cc1 | > 100 µM (inactive) | > 100 µM (inactive) | > 100 µM (inactive) | > 100 µM (inactive) | > 100 µM (inactive) | > 100 µM (inactive) | > 100 µM (inactive) | > 100 µM (inactive) | > 100 µM (inactive) | > 100 µM (inactive) | > 100 µM (inactive) | > 100 µM (inactive) | > 100 µM (inactive) | > 100 µM (inactive) | > 100 µM (inactive) | > 100 µM (inactive) | > 100 µM (inactive) | > 100 µM (inactive) | > 100 µM (inactive) | 
C[C@H]1CC(=O)[C@@]2(O)C#C/C=C\C#C[C@@H]3Nc4c(cc(O)c5c4C(=O)c4ccccc4C5=O)[C@]24O[C@]314 | 0.00543 µM (active) | < 0.001 µM (active) | 0.0194 µM (active) | < 0.001 µM (active) | 0.228 µM (active) | 0.0118 µM (active) | 0.00916 µM (active) | < 0.001 µM (active) | 0.0309 µM (active) | 0.01 µM (active) | 0.00356 µM (active) | 0.271 µM (active) | 0.0158 µM (active) | 0.00313 µM (active) | 0.0161 µM (active) | 0.0199 µM (active) | 0.0153 µM (active) | 0.0305 µM (active) | 0.00764 µM (active) | 
Cc1nn(-c2ccccc2)c(C)c1/C=N/NC(=O)c1sc(=S)n(-c2ccc(Cl)cc2)c1N | 6.28 µM (inactive) | 4.18 µM (inactive) | 21.2 µM (inactive) | 2.76 µM (inactive) | 3.55 µM (inactive) | 3.52 µM (inactive) | 5.24 µM (inactive) | 18 µM (inactive) | 11.5 µM (inactive) | 17.5 µM (inactive) | 34.5 µM (inactive) | 3.94 µM (inactive) | 32.3 µM (inactive) | 9.57 µM (inactive) | 2.71 µM (inactive) | > 100 µM (inactive) | > 100 µM (inactive) | 16.5 µM (inactive) | 5.98 µM (inactive) | 

Reference: ChEMBL document CHEMBL1201862, “PubChem BioAssay data set” (2004)
